Patent publication US10316050B2, “PT (IV) complexes containing 4,4′-disubstituted-2,2′-bipyridyl and their use in cancer therapy” (THE BOARD OF REGENTS OF THE NEVADA SYSTEM OF HIGHER …, priority 2014, dated 2019)

How the values were obtained:
DU145 cells = test: Annexin V/PI flow cytometry, DU145; assay type: cell-based, human; settings: DU145, 10 μM Pt(IV)-4C or 2.5 μM Pt(IV)-5C for 1 hour, analyzed 12 hours post treatment
Procedure: FIG. 11 is a series of graphs showing flow cytometry analysis of Annexin V/PI staining in A549 cells (top) and DU145 cells (bottom) treated with Pt(IV)-4C and Pt(IV)-5C. A549 cells were treated for 5 hours with control (left), 25 μM Pt(IV)-4C (center), or 10 μM Pt(IV)-5C (right), and analyzed 12 hours post treatment. DU145 cells were treated for 1 hour with control (left), 10 μM Pt(IV)-4C (center), or 2.5 μM Pt(IV)-5C (right) and analyzed 12 hours post treatment. Q1=PI+, represents necrotic cells; Q2=Annexin V/PI+, representing late apoptotic/necrotic cells; Q3=Annexin V+, representing early apoptotic cells; Q4=AnnexinV/PI−, representing live cells. Data are representative of three independent experiments.
Cells (˜50 to 60% confluent in 60 mm dishes) were treated as indicated with the platinum compound. After treatment, the floating cells were collected, and both attached and floating cells were washed 2× with PBS. The cells were resuspended in fresh medium and incubated as indicated. The cells were harvested (both the floating and attached cells were collected), counted, and pelleted. The cells were then washed two times with 5 mL of Ca^2+ and Mg^2+ free PBS. The pellets were then washed in 2.0 mL of 1× Annexin-V Binding buffer (BD Bioscience, San Jose, CAS) and centrifuged at 500×g for 5 minutes. […] A quantitative measure of these event shifts was accomplished by gating. […]

[1] = tested on: cleaved-PARP in A549 cells; test: Flow cytometry of cleaved-PARP, A549; assay type: cell-based, human; settings: A549, 25 μM Pt(IV)-4C or 7.5 μM Pt(IV)-5C for 5 hours, analyzed 12 hours post treatment
Procedure: FIG. 12 is a series of histograms indicating Pt(IV)-4C and Pt(IV)-5C-induced cleavage of PARP in A549 cells (top panels) and in DU145 cells (bottom). A549 cells were treated for 5 hours with control (left), 25 μM Pt(IV)-4C (center), or 7.5 μM Pt(IV)-5C (right), and analyzed 12 hours post treatment. DU145 cells were treated for 2 hours with control (left), 10 μM Pt(IV)-4C (center), or 2.5 μM Pt(IV)-5C (right), and analyzed seven hours post treatment. Data are representative of three independent experiments.
Cells (200,000 to 250,000) were seeded in 60 mm dishes and incubated at 37° C. in a humidified, 5% CO2 atmosphere for 2 days to reach ˜50-60% confluence. The cells were treated with the platinum complexes as indicated, the floating cells were collected, and both attached and floating cells were washed 2× with PBS. The cells were resuspended in fresh medium and incubated as indicated. After incubation, both the floating and attached cells were collected and fixed by incubation in 4% formaldehyde for 10 minutes at room temperature. The fixed cells were pelleted and permeabilized by incubation in 500 μL of ice-cold methanol at 4° C. for 10 minutes. The samples were stored at −20° C. until analysis. For analysis, the cells were pelleted and washed 2× with 1% BSA in PBS. […] After washing 2× with 1% BSA, the cells were resuspended in PBS and analyzed on a Becton Dickinson FACS Calibur. […]

Row | Molecule | Annexin V/PI staining (apoptosis) (DU145 cells) | fold increase of cleaved-PARP [1] [fold]
1 | CC(=O)[O][Pt]([Cl])([Cl])[O]C(C)=O.CCCCCOc1ccnc(-c2cc(OCCCCC)ccn2)c1 [Pt(IV)-5C, [Pt(IV)Cl2(OAc)2(4,4′-dipentoxy-2,2′-bipyridine)]] | induce apoptosis | ~7
2 | [Pt(IV)Cl2(OAc)2(4,4′-dibutoxy-2,2′-bipyridine)] [Pt(IV)-4C] | induce apoptosis | ~7
